This series in a line: Olopatadine solubility in water and in formulations. The settings on record: for solubility: Concentration (mg/mL) of solubilized olopatadine. The class given is physicochemical.

SMILES strings stand for the structures. Values after ≈ are worked out from the molar mass of the structure shown.

Among the data in patent US8791154B2 (Alcon Research, Ltd., priority 2011, dated 2014) are solubility and solubility in water values, retold here.

Regarding `CN(C)CC/C=C1/c2ccccc2COc2ccc(CC(=O)O)cc21` [Olopatadine], the solubility (formulation with PVP K29/32, SBE-CD, PEG 400 and HPMC, pH 6.96, aqueous with cosolvent or surfactant or cyclodextrin, 4% PVP K29/32, 1.5% SBE-CD, 4% PEG 400, 0.6% HPMC, final pH 6.96) came out at 7460 µg/mL (≈ 22.1 mM); the solubility (formulation with PVP K29/32, SBE-CD, PEG 400 and HPMC, pH 7.01, aqueous with cosolvent or surfactant or cyclodextrin, 4% PVP K29/32, 2.3% SBE-CD, 4% PEG 400, 0.6% HPMC, final pH 7.01) is 8660 µg/mL (≈ 25.7 mM); the solubility (formulation with PVP K29/32, SBE-CD, PEG 400 and HPMC, pH 7.02, aqueous with cosolvent or surfactant or cyclodextrin, 4% PVP K29/32, 2.2% SBE-CD, 4% PEG 400, 0.6% HPMC, final pH 7.02) was 8620 µg/mL (≈ 25.5 mM); the solubility (formulation with PVP K29/32, SBE-CD, PEG 400 and HPMC, pH 7.04, aqueous with cosolvent or surfactant or cyclodextrin, 4% PVP K29/32, 2.5% SBE-CD, 4% PEG 400, 0.6% HPMC, final pH 7.04) amounted to 9040 µg/mL (≈ 26.8 mM); the solubility (formulation with PVP K29/32, SBE-CD, PEG 400 and HPMC, pH 7.06, aqueous with cosolvent or surfactant or cyclodextrin, 4% PVP K29/32, 2.0% SBE-CD, 4% PEG 400, 0.6% HPMC, final pH 7.06) came to 8110 µg/mL (≈ 24 mM); the solubility (pH 6.97, aqueous with cosolvent or surfactant or cyclodextrin, 4% PVP K29/32, 1.5% SBE-CD, 4% PEG 400, no HPMC, final pH 6.97) stood at 6130 µg/mL (≈ 18.2 mM). The solubility is, setting by setting: (pH 6.97, aqueous with cosolvent or surfactant or cyclodextrin, 4% PVP K29/32, 2.0% SBE-CD, 4% PEG 400, no HPMC, final pH 6.97) 6740 µg/mL (≈ 20 mM); (pH 6.98, aqueous with cosolvent or surfactant or cyclodextrin, 4% PVP K29/32, 2.5% SBE-CD, 4% PEG 400, no HPMC, final pH 6.98) 7340 µg/mL (≈ 21.8 mM); (pH 7.01, aqueous with cosolvent or surfactant or cyclodextrin, 4% PVP K29/32, 2.2% SBE-CD, 4% PEG 400, no HPMC, final pH 7.01) 6970 µg/mL (≈ 20.7 mM); (pH 7.02, aqueous with cosolvent or surfactant or cyclodextrin, 4% PVP K29/32, 2.3% SBE-CD, 4% PEG 400, no HPMC, final pH 7.02) 7160 µg/mL (≈ 21.2 mM). Also, the solubility in water entry (water, pH about 7.0, room temperature, olopatadine by itself) is “about 0.18 w/v %”.
